# Data from patent publication US12128035B2, “Activating pyruvate kinase R” (Novo Nordisk Health Care AG, priority 2021, dated 2024).
# Tested on: 2,3-DPG blood levels
# Test: Phase 1 SAD/MAD: blood 2,3-DPG (LC-MS/MS) in healthy volunteers
# Type: in vivo, human
# Details: for median and mean reduction in 2,3-DPG, relative to baseline: all MAD dose levels
# Experimental: In this study, SAD/MAD cohorts are randomized (3 to 1) to receive Compound 1 or placebo (P). Compound 1 was evaluated first in 4 healthy SAD cohorts and 4 healthy MAD (14-day dosing period) cohorts. Based on the safety, and PK/PD profile from HS, Compound 1 is then evaluated in 1 SCD SAD cohort and 2 SCD MAD cohorts. Specifically, based on the safety and pharmacokinetic/pharmacodynamics (PK/PD) profile in healthy volunteer studies, Compound 1 is evaluated in patients (pts) with SCD, first in a single dose (SD or SAD) cohort and then in multiple-dose (MD or MAD) cohorts (14-day and 12-week). Safety assessments include AEs, vital signs, ECGs and laboratory parameters. PK/PD blood sampling was performed on Day 1 (SAD/MAD) and Day 14 (MAD) and up to 72 h after the last dose and at the end-of-study visit. PD parameters included 2,3-DPG, ATP, and p50 in all cohorts with additional PD studies (including oxygen scan) performed only in the SCD cohorts. PD parameters included 2,3-DPG, ATP, p50, RBC deformability with controlled deoxygenation and reoxygenation (Lorrca® oxygen scan) and varying osmolality (Lorrca® osmoscan)). To maintain study blind, pt identifiers were removed when needed.
# In the SAD cohorts, the subjects' blood 2,3-DPG levels were measured periodically after dosing by a qualified LC-MS/MS method for the quantitation of 2,3-DPG in blood. Decreased 2,3-DPG blood levels were observed 6 hours following a single dose of Compound 1 at all dose levels (earlier timepoints were not collected). Maximum decreases in 2,3-DPG levels generally occurred ˜24 hours after the first dose with the reduction sustained ˜48-72 hr postdose. Table 15 reports the median percentage change in 2,3-DPG blood levels, relative to baseline, measured over time in healthy volunteers after a single dose of Compound 1 (200 mg, 400 mg, 700 mg, or 1000 mg) or placebo. Table 16 reports the mean percentage change in 2,3-DPG blood levels, relative to baseline, measured over time in healthy volunteers after a single dose of Compound 1 (200 mg, 400 mg, 700 mg, or 1000 mg). Accordingly, the median and mean reduction in the concentration of 2,3-DPG, relative to baseline, was at least about 30% at all dose levels tested 24 hours after administration of the single dose.
# In the MAD cohorts, the subjects' blood 2,3-DPG levels were measured periodically after dosing by a qualified LC-MS/MS method for the quantitation of 2,3-DPG in blood. […] Table 18B reports the mean percentage change in 2,3-DPG blood levels, relative to baseline, measured over time after the first dose on days 1 and 14 in healthy volunteers who received daily doses of Compound 1 (100 mg BID, 200 mg BID, 300 mg BID, or 400 mg QD) for 14 days. Accordingly, the median and mean reduction in the concentration of 2,3-DPG, relative to baseline, was at least about 25% at all dose levels tested 24 hours after administration of the first dose on day 1 and at least about 40% at all dose levels tested 24 hours after administration of the first dose on day 14.
# The following procedures are employed for the analysis of ATP and 2,3-DPG in human whole blood K2EDTA using a protein precipitation extraction procedure and analysis by LC-MS/MS.
# The following procedures are used for sample extraction prior to analysis via LC-MS/MS. 15.0 μL of the calibration standards, quality controls, matrix blanks, and samples are aliquoted into a 96-well plate. 50.0 μL of the internal standard spiking solution is added to all samples on the plate, with the exception of the matrix blank samples; 50.0 μL of water is added to the matrix blank samples. Subsequently, 150 μL of water is added to all samples on the plate. The plate is then covered and agitated by vortex at high speed for ten minutes, after which 750 μL of methanol is added to all samples on the plate. The plate is covered and agitated by vortex for approximately 1 minute. The plate is then centrifuged at approximately 3500 RPM at approximately 4° C. for five minutes. […]
# [1] = HV 400 mg QD, Day 14, 8 h after first daily dose
# [2] = HV 400 mg QD, Day 14, 12 h after first daily dose
# [3] = HV 400 mg QD, Day 14, 16 h after first daily dose
# [4] = HV 400 mg QD, Day 14, 24 h after first daily dose
# [5] = HV 400 mg QD, Day 14, 48 h after first daily dose
# [6] = HV 400 mg QD, Day 14, 72 h after first daily dose
# [7] = HV single 200 mg, 0 h after dose
# [8] = HV single 200 mg, 6 h after dose
# [9] = HV single 200 mg, 8 h after dose
# [10] = HV single 200 mg, 12 h after dose
# [11] = HV single 200 mg, 16 h after dose
# [12] = HV single 200 mg, 24 h after dose
# [13] = HV single 200 mg, 36 h after dose
# [14] = HV single 200 mg, 48 h after dose
# [15] = HV single 200 mg, 72 h after dose
# [16] = HV single 400 mg, 0 h after dose
# [17] = HV single 400 mg, 6 h after dose
# [18] = HV single 400 mg, 8 h after dose
# [19] = HV single 400 mg, 12 h after dose
# [20] = HV single 400 mg, 16 h after dose
# [21] = HV single 400 mg, 24 h after dose
# [22] = HV single 400 mg, 36 h after dose
# [23] = HV single 400 mg, 48 h after dose
# [24] = HV single 400 mg, 72 h after dose
# [25] = HV single 700 mg, 0 h after dose
# [26] = HV single 700 mg, 6 h after dose
# [27] = HV single 700 mg, 8 h after dose
# [28] = HV single 700 mg, 12 h after dose
# [29] = HV single 700 mg, 16 h after dose
# [30] = HV single 700 mg, 24 h after dose
# [31] = HV single 700 mg, 36 h after dose
# [32] = HV single 700 mg, 48 h after dose
# [33] = HV single 700 mg, 72 h after dose
# [34] = HV single 1000 mg, 0 h after dose
# [35] = HV single 1000 mg, 6 h after dose
# [36] = HV single 1000 mg, 8 h after dose
# [37] = HV single 1000 mg, 12 h after dose
# [38] = HV single 1000 mg, 16 h after dose
# [39] = HV single 1000 mg, 24 h after dose
# [40] = HV single 1000 mg, 36 h after dose
# [41] = HV single 1000 mg, 48 h after dose
# [42] = HV single 1000 mg, 72 h after dose
smiles,measurement,setting,value
"O=C([C@H](CO)c1ccccc1)N1CC2=C(C1)CN(S(=O)(=O)c1cnc3c(c1)OCCO3)C2 (single isomer, unassigned) [Compound 1]","Mean Percentage Change in 2,3-DPG Levels",[1],−55%
same,"Median Percentage Change in 2,3-DPG Levels",[1],−56%
same,"Mean Percentage Change in 2,3-DPG Levels",[2],−50%
same,"Median Percentage Change in 2,3-DPG Levels",[2],−49%
same,"Mean Percentage Change in 2,3-DPG Levels",[3],−51%
same,"Median Percentage Change in 2,3-DPG Levels",[3],−52%
same,"Mean Percentage Change in 2,3-DPG Levels",[4],−53%
same,"Median Percentage Change in 2,3-DPG Levels",[4],−53%
same,"Mean Percentage Change in 2,3-DPG Levels",[5],−38%
same,"Median Percentage Change in 2,3-DPG Levels",[5],−40%
same,"Mean Percentage Change in 2,3-DPG Levels",[6],−28%
same,"Median Percentage Change in 2,3-DPG Levels",[6],−25%
same,"maximum decrease in 2,3-DPG from baseline (median)","HV MAD cohorts, Day 14",55%
same,"Mean Maximum Percent Change from Baseline, 2,3-DPG","HV MAD, all doses and timepoints (N = 36)",−56.3%
same,"2,3-DPG reduction sustained postdose",HV SAD cohorts,48 to 72 h
same,"Mean Maximum Percent Change from Baseline, 2,3-DPG","HV SAD, all doses and timepoints (N = 24)",−46.8%
same,"Mean Percentage Change in 2,3-DPG Levels",[7],0%
same,"Median Percentage Change in 2,3-DPG Levels",[7],0.0%
same,"Mean Percentage Change in 2,3-DPG Levels",[8],−17%
same,"Median Percentage Change in 2,3-DPG Levels",[8],−18%
same,"Mean Percentage Change in 2,3-DPG Levels",[9],−21%
same,"Median Percentage Change in 2,3-DPG Levels",[9],−17%
same,"Mean Percentage Change in 2,3-DPG Levels",[10],−26%
same,"Median Percentage Change in 2,3-DPG Levels",[10],−25%
same,"Mean Percentage Change in 2,3-DPG Levels",[11],−28%
same,"Median Percentage Change in 2,3-DPG Levels",[11],−33%
same,"Mean Percentage Change in 2,3-DPG Levels",[12],−30%
same,"Median Percentage Change in 2,3-DPG Levels",[12],−31%
same,"Mean Percentage Change in 2,3-DPG Levels",[13],−31%
same,"Median Percentage Change in 2,3-DPG Levels",[13],−33%
same,"Mean Percentage Change in 2,3-DPG Levels",[14],−33%
same,"Median Percentage Change in 2,3-DPG Levels",[14],−29%
same,"Mean Percentage Change in 2,3-DPG Levels",[15],−14%
same,"Median Percentage Change in 2,3-DPG Levels",[15],−18%
same,"time of pharmacodynamic maximum (minimum of the 2,3-DPG concentration)",HV single 400 mg,~24 h
same,"Mean Percentage Change in 2,3-DPG Levels",[16],0%
same,"Median Percentage Change in 2,3-DPG Levels",[16],0.0%
same,"Mean Percentage Change in 2,3-DPG Levels",[17],−24%
same,"Median Percentage Change in 2,3-DPG Levels",[17],−23%
same,"Mean Percentage Change in 2,3-DPG Levels",[18],−29%
same,"Median Percentage Change in 2,3-DPG Levels",[18],−29%
same,"Mean Percentage Change in 2,3-DPG Levels",[19],−35%
same,"Median Percentage Change in 2,3-DPG Levels",[19],−40%
same,"Mean Percentage Change in 2,3-DPG Levels",[20],−38%
same,"Median Percentage Change in 2,3-DPG Levels",[20],−35%
same,"Mean Percentage Change in 2,3-DPG Levels",[21],−41%
same,"Median Percentage Change in 2,3-DPG Levels",[21],−39%
same,"Mean Percentage Change in 2,3-DPG Levels",[22],−37%
same,"Median Percentage Change in 2,3-DPG Levels",[22],−38%
same,"Mean Percentage Change in 2,3-DPG Levels",[23],−34%
same,"Median Percentage Change in 2,3-DPG Levels",[23],−31%
same,"Mean Percentage Change in 2,3-DPG Levels",[24],−30%
same,"Median Percentage Change in 2,3-DPG Levels",[24],−30%
same,"Mean Percentage Change in 2,3-DPG Levels",[25],0%
same,"Median Percentage Change in 2,3-DPG Levels",[25],0.0%
same,"Mean Percentage Change in 2,3-DPG Levels",[26],−30%
same,"Median Percentage Change in 2,3-DPG Levels",[26],−29%
same,"Mean Percentage Change in 2,3-DPG Levels",[27],−29%
same,"Median Percentage Change in 2,3-DPG Levels",[27],−28%
same,"Mean Percentage Change in 2,3-DPG Levels",[28],−41%
same,"Median Percentage Change in 2,3-DPG Levels",[28],−41%
same,"Mean Percentage Change in 2,3-DPG Levels",[29],−46%
same,"Median Percentage Change in 2,3-DPG Levels",[29],−46%
same,"Mean Percentage Change in 2,3-DPG Levels",[30],−49%
same,"Median Percentage Change in 2,3-DPG Levels",[30],−49%
same,"Mean Percentage Change in 2,3-DPG Levels",[31],−47%
same,"Median Percentage Change in 2,3-DPG Levels",[31],−46%
same,"Mean Percentage Change in 2,3-DPG Levels",[32],−48%
same,"Median Percentage Change in 2,3-DPG Levels",[32],−48%
same,"Mean Percentage Change in 2,3-DPG Levels",[33],−32%
same,"Median Percentage Change in 2,3-DPG Levels",[33],−33%
same,"Mean Percentage Change in 2,3-DPG Levels",[34],0%
same,"Median Percentage Change in 2,3-DPG Levels",[34],0.0%
same,"Mean Percentage Change in 2,3-DPG Levels",[35],−18%
same,"Median Percentage Change in 2,3-DPG Levels",[35],−21%
same,"Mean Percentage Change in 2,3-DPG Levels",[36],−31%
same,"Median Percentage Change in 2,3-DPG Levels",[36],−33%
same,"Mean Percentage Change in 2,3-DPG Levels",[37],−35%
same,"Median Percentage Change in 2,3-DPG Levels",[37],−38%
same,"Mean Percentage Change in 2,3-DPG Levels",[38],−40%
same,"Median Percentage Change in 2,3-DPG Levels",[38],−40%
same,"Mean Percentage Change in 2,3-DPG Levels",[39],−44%
same,"Median Percentage Change in 2,3-DPG Levels",[39],−48%
same,"Mean Percentage Change in 2,3-DPG Levels",[40],−46%
same,"Median Percentage Change in 2,3-DPG Levels",[40],−47%
same,"Mean Percentage Change in 2,3-DPG Levels",[41],−43%
same,"Median Percentage Change in 2,3-DPG Levels",[41],−44%
same,"Mean Percentage Change in 2,3-DPG Levels",[42],−27%
same,"Median Percentage Change in 2,3-DPG Levels",[42],−24%
same,"lag of maximum decrease in blood 2,3-DPG behind maximum plasma concentration","HV single 200, 400, 700 or 1000 mg",about 24 hours
same,"time of maximal decrease in blood 2,3-DPG post-dose","HV single dose (400 mg), FIG. 41",16 to 24 h
same,"mean maximum reduction in the concentration of 2,3-DPG",MAD study,at least 50%
same,"mean maximum reduction of 2,3-DPG, range",MAD study,46.1-63.6%
same,"mean maximum reduction in the concentration of 2,3-DPG",SAD study,at least 40%
same,"mean maximum reduction of 2,3-DPG, range",SAD study,35.4-56.1%
same,"median and mean reduction in 2,3-DPG, relative to baseline",24 hours after first dose on day 1,at least 25%
same,"median and mean reduction in 2,3-DPG, relative to baseline",24 hours after first dose on day 14,at least 40%
same,"median and mean reduction in the concentration of 2,3-DPG, relative to baseline","all SAD dose levels, 24 hours after the single dose",at least 30%
